# Data reported in PMC10364322, “Evaluation of chronic drug-induced electrophysiological and cytotoxic effects using human-induced pluripotent stem cell-derived cardiomyocytes (hiPSC-CMs)” (Frontiers in Pharmacology, 2023).
# Where two headings read alike, the source gives them in different places.
# How the values were obtained:
# [1] = test system: hiPSC-CMs (iCell-Cardiomyocytes^2)
# Method in brief: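 Monolayers of hiPSC-CMs on fibronectin-coated MEA plates, 50 K/well, kept at 37°C, 5% CO2; compounds added in 0.1% final DMSO after 5-min baseline. Field potential and impedance parameters expressed as mean ± SD percent change from baseline; arrhythmic events noted; cytotoxicity fluorescence normalized to DMSO, Kruskal-Wallis.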
# [2] = test system: hiPSC-CMs (iCell-Cardiomyocytes^2); test: MEA impedance (cytotoxicity readout) in hiPSC-CMs
# [3] = free therapeutic Cmax in humans; ref FDA-approved drug packages, PharmaPendium; cited from earlier work
smiles,measurement,setting,value
COc1cc2c(Nc3ccc(Br)cc3F)ncnc2cc1OCC1CCN(C)CC1 [Vandetanib],"BR (beating rate), % change from baseline","[1]; 0.1 µM, 2h",0±4%
same,"Beating below threshold, number of observations/total well numbers","[1]; 0.1 µM, 2h",0/5
same,"Cessation of beating, number of observations/total well numbers","[1]; 0.1 µM, 2h",0/5
same,"EAD, number of observations/total well numbers","[1]; 0.1 µM, 2h",0/5
same,"FPDc (field-potential duration corrected by beat-rate), % change from baseline","[1]; 0.1 µM, 2h",15.3±2.3 %
same,"Flat T-wave-like, number of observations/total well numbers","[1]; 0.1 µM, 2h",0/5
same,"BR (beating rate), % change from baseline","[1]; 0.1 µM, 24h",-9±5%
same,"Beating below threshold, number of observations/total well numbers","[1]; 0.1 µM, 24h",0/5
same,"Cessation of beating, number of observations/total well numbers","[1]; 0.1 µM, 24h",0/5
same,"EAD, number of observations/total well numbers","[1]; 0.1 µM, 24h",0/5
same,"FPDc (field-potential duration corrected by beat-rate), % change from baseline","[1]; 0.1 µM, 24h",44.1±5.9 %
same,"Flat T-wave-like, number of observations/total well numbers","[1]; 0.1 µM, 24h",0/5
same,"BR (beating rate), % change from baseline","[1]; 0.1 µM, 48h",-14±2 %
same,"Beating below threshold, number of observations/total well numbers","[1]; 0.1 µM, 48h",0/5
same,"Cessation of beating, number of observations/total well numbers","[1]; 0.1 µM, 48h",0/5
same,"EAD, number of observations/total well numbers","[1]; 0.1 µM, 48h",0/5
same,"FPDc (field-potential duration corrected by beat-rate), % change from baseline","[1]; 0.1 µM, 48h",40.3±1.1 %
same,"Flat T-wave-like, number of observations/total well numbers","[1]; 0.1 µM, 48h",0/5
same,"BR (beating rate), % change from baseline","[1]; 0.1 µM, 72h",-17±2 %
same,"Beating below threshold, number of observations/total well numbers","[1]; 0.1 µM, 72h",0/5
same,"Cessation of beating, number of observations/total well numbers","[1]; 0.1 µM, 72h",0/5
same,"EAD, number of observations/total well numbers","[1]; 0.1 µM, 72h",0/5
same,"FPDc (field-potential duration corrected by beat-rate), % change from baseline","[1]; 0.1 µM, 72h",52.6±4.9 %
same,"Flat T-wave-like, number of observations/total well numbers","[1]; 0.1 µM, 72h",0/5
same,"BR (beating rate), % change from baseline","[1]; 0.1 µM, 96h",-19±3%
same,"Beating below threshold, number of observations/total well numbers","[1]; 0.1 µM, 96h",0/5
same,"Cessation of beating, number of observations/total well numbers","[1]; 0.1 µM, 96h",0/5
same,"EAD, number of observations/total well numbers","[1]; 0.1 µM, 96h",0/5
same,"FPDc (field-potential duration corrected by beat-rate), % change from baseline","[1]; 0.1 µM, 96h",57.6±5.7 %
same,"Flat T-wave-like, number of observations/total well numbers","[1]; 0.1 µM, 96h",0/5
same,"BR (beating rate), % change from baseline","[1]; 0.3 µM, 2h",-5±4%
same,"Beating below threshold, number of observations/total well numbers","[1]; 0.3 µM, 2h",0/5
same,"Cessation of beating, number of observations/total well numbers","[1]; 0.3 µM, 2h",0/5
same,"EAD, number of observations/total well numbers","[1]; 0.3 µM, 2h",0/5
same,"FPDc (field-potential duration corrected by beat-rate), % change from baseline","[1]; 0.3 µM, 2h",28.5±9.1 %
same,"Flat T-wave-like, number of observations/total well numbers","[1]; 0.3 µM, 2h",0/5
same,"BR (beating rate), % change from baseline","[1]; 0.3 µM, 24h",-29±5 %
same,"Beating below threshold, number of observations/total well numbers","[1]; 0.3 µM, 24h",0/5
same,"Cessation of beating, number of observations/total well numbers","[1]; 0.3 µM, 24h",0/5
same,"EAD, number of observations/total well numbers","[1]; 0.3 µM, 24h",1/5
same,"FPDc (field-potential duration corrected by beat-rate), % change from baseline","[1]; 0.3 µM, 24h",112±14.9 %
same,"Flat T-wave-like, number of observations/total well numbers","[1]; 0.3 µM, 24h",1/5
same,"BR (beating rate), % change from baseline","[1]; 0.3 µM, 48h",-31±2 %
same,"Beating below threshold, number of observations/total well numbers","[1]; 0.3 µM, 48h",0/5
same,"Cessation of beating, number of observations/total well numbers","[1]; 0.3 µM, 48h",0/5
same,"EAD, number of observations/total well numbers","[1]; 0.3 µM, 48h",0/5
same,"FPDc (field-potential duration corrected by beat-rate), % change from baseline","[1]; 0.3 µM, 48h",99.2±21.9 %
same,"Flat T-wave-like, number of observations/total well numbers","[1]; 0.3 µM, 48h",1/5
same,"BR (beating rate), % change from baseline","[1]; 0.3 µM, 72h",-40±3 %
same,"Beating below threshold, number of observations/total well numbers","[1]; 0.3 µM, 72h",0/5
same,"Cessation of beating, number of observations/total well numbers","[1]; 0.3 µM, 72h",0/5
same,"EAD, number of observations/total well numbers","[1]; 0.3 µM, 72h",0/5
same,"FPDc (field-potential duration corrected by beat-rate), % change from baseline","[1]; 0.3 µM, 72h",126.3±24.4 %
same,"Flat T-wave-like, number of observations/total well numbers","[1]; 0.3 µM, 72h",1/5
same,"BR (beating rate), % change from baseline","[1]; 0.3 µM, 96h",-43±6 %
same,"Beating below threshold, number of observations/total well numbers","[1]; 0.3 µM, 96h",0/5
same,"Cessation of beating, number of observations/total well numbers","[1]; 0.3 µM, 96h",0/5
same,"EAD, number of observations/total well numbers","[1]; 0.3 µM, 96h",0/5
same,"FPDc (field-potential duration corrected by beat-rate), % change from baseline","[1]; 0.3 µM, 96h",144.1±35.5 %
same,"Flat T-wave-like, number of observations/total well numbers","[1]; 0.3 µM, 96h",1/5
same,"BR (beating rate), % change from baseline","[1]; 1 µM, 2h",-28±5 %
same,"Beating below threshold, number of observations/total well numbers","[1]; 1 µM, 2h",0/5
same,"Cessation of beating, number of observations/total well numbers","[1]; 1 µM, 2h",0/5
same,"EAD, number of observations/total well numbers","[1]; 1 µM, 2h",0/5
same,"FPDc (field-potential duration corrected by beat-rate), % change from baseline","[1]; 1 µM, 2h",110.2±0 %
same,"Flat T-wave-like, number of observations/total well numbers","[1]; 1 µM, 2h",4/5
same,"BR (beating rate), % change from baseline","[1]; 1 µM, 24h",-59±5 %
same,"Beating below threshold, number of observations/total well numbers","[1]; 1 µM, 24h",0/5
same,"Cessation of beating, number of observations/total well numbers","[1]; 1 µM, 24h",0/5
same,"EAD, number of observations/total well numbers","[1]; 1 µM, 24h",1/5
same,"Flat T-wave-like, number of observations/total well numbers","[1]; 1 µM, 24h",5/5
same,"BR (beating rate), % change from baseline","[1]; 1 µM, 48h",-65±2 %
same,"Beating below threshold, number of observations/total well numbers","[1]; 1 µM, 48h",0/5
same,"Cessation of beating, number of observations/total well numbers","[1]; 1 µM, 48h",0/5
same,"EAD, number of observations/total well numbers","[1]; 1 µM, 48h",2/5
same,"Flat T-wave-like, number of observations/total well numbers","[1]; 1 µM, 48h",5/5
same,"BR (beating rate), % change from baseline","[1]; 1 µM, 72h",-68±2 %
same,"Beating below threshold, number of observations/total well numbers","[1]; 1 µM, 72h",1/5
same,"Cessation of beating, number of observations/total well numbers","[1]; 1 µM, 72h",1/5
same,"EAD, number of observations/total well numbers","[1]; 1 µM, 72h",0/5
same,"Flat T-wave-like, number of observations/total well numbers","[1]; 1 µM, 72h",3/5
same,"BR (beating rate), % change from baseline","[1]; 1 µM, 96h",-68±0 %
same,"Beating below threshold, number of observations/total well numbers","[1]; 1 µM, 96h",0/5
same,"Cessation of beating, number of observations/total well numbers","[1]; 1 µM, 96h",4/5
same,"EAD, number of observations/total well numbers","[1]; 1 µM, 96h",0/5
same,"Flat T-wave-like, number of observations/total well numbers","[1]; 1 µM, 96h",1/5
same,time point from which cessation of beating occurred in all wells,[1]; 3 µM,24 h
same,"Beating below threshold, number of observations/total well numbers","[1]; 3 µM, 72h",0/5
same,"Cessation of beating, number of observations/total well numbers","[1]; 3 µM, 72h",5/5
same,"EAD, number of observations/total well numbers","[1]; 3 µM, 72h",0/5
same,"Flat T-wave-like, number of observations/total well numbers","[1]; 3 µM, 72h",0/5
same,"Beating below threshold, number of observations/total well numbers","[1]; 3 µM, 96h",0/5
same,"Cessation of beating, number of observations/total well numbers","[1]; 3 µM, 96h",5/5
same,"EAD, number of observations/total well numbers","[1]; 3 µM, 96h",0/5
same,"Flat T-wave-like, number of observations/total well numbers","[1]; 3 µM, 96h",0/5
same,"BR (beating rate), % change from baseline","[1]; 3 µM, 2h",-58±4 %
same,"Beating below threshold, number of observations/total well numbers","[1]; 3 µM, 2h",0/5
same,"Cessation of beating, number of observations/total well numbers","[1]; 3 µM, 2h",0/5
same,"EAD, number of observations/total well numbers","[1]; 3 µM, 2h",0/5
same,EAD-like events,"[1]; 3 µM, 2h",EAD-like events occurred
same,"Flat T-wave-like, number of observations/total well numbers","[1]; 3 µM, 2h",5/5
same,"BR (beating rate), % change from baseline","[1]; 3 µM, 24h",-71±1 %
same,"Beating below threshold, number of observations/total well numbers","[1]; 3 µM, 24h",0/5
same,"Cessation of beating, number of observations/total well numbers","[1]; 3 µM, 24h",3/5
same,"EAD, number of observations/total well numbers","[1]; 3 µM, 24h",0/5
same,"Flat T-wave-like, number of observations/total well numbers","[1]; 3 µM, 24h",2/5
same,"Beating below threshold, number of observations/total well numbers","[1]; 3 µM, 48h",1/5
same,"Cessation of beating, number of observations/total well numbers","[1]; 3 µM, 48h",4/5
same,"EAD, number of observations/total well numbers","[1]; 3 µM, 48h",0/5
same,"Flat T-wave-like, number of observations/total well numbers","[1]; 3 µM, 48h",0/5
same,"Imp (impedance), % change from baseline","[2]; 0.1 µM, 2h",-3±2%
same,"Imp (impedance), % change from baseline","[2]; 0.1 µM, 24h",-9±2%
same,"Imp (impedance), % change from baseline","[2]; 0.1 µM, 48h",-7±2%
same,"Imp (impedance), % change from baseline","[2]; 0.1 µM, 72h",-9±3%
same,"Imp (impedance), % change from baseline","[2]; 0.1 µM, 96h",-6±3%
same,"Imp (impedance), % change from baseline","[2]; 0.3 µM, 2h",-2±1%
same,"Imp (impedance), % change from baseline","[2]; 0.3 µM, 24h",-9±4%
same,"Imp (impedance), % change from baseline","[2]; 0.3 µM, 48h",-3±3%
same,"Imp (impedance), % change from baseline","[2]; 0.3 µM, 72h",-5±4%
same,"Imp (impedance), % change from baseline","[2]; 0.3 µM, 96h",-6±5%
same,"Imp (impedance), % change from baseline","[2]; 1 µM, 2h",-3±2%
same,"Imp (impedance), % change from baseline","[2]; 1 µM, 24h",-11±3%
same,"Imp (impedance), % change from baseline","[2]; 1 µM, 48h",-13±4%
same,"Imp (impedance), % change from baseline","[2]; 1 µM, 72h",-20±4 %
same,"Imp (impedance), % change from baseline","[2]; 1 µM, 96h",-20±5%
same,"Imp (impedance), % change from baseline","[2]; 3 µM, 72h",-44±7 %
same,"Imp (impedance), % change from baseline","[2]; 3 µM, 96h",-53±5 %
same,"Imp (impedance), % change from baseline","[2]; 3 µM, 2h",2±4%
same,"Imp (impedance), % change from baseline","[2]; 3 µM, 24h",-16±3%
same,"Imp (impedance), % change from baseline","[2]; 3 µM, 48h",-30±5 %
same,Free Cmax,[3],0.4 µM
